Entries after “also recorded” stand apart in the source; their conditions may differ.
Key:
[1] = Solubility of oxazaphospholidine phosphoramidite monomers in solvent, visual examination; format: physicochemical; details: for Solubility over 24 hours in MeCN with addition of pyridine: MeCN + 2.5% pyridine; for Solubility after 24 hours in MeCN: MeCN alone
Method: To a 1.5 mL vial was added 0.013 mmol of amidite after which the solid material was dissolved in 0.13 mL of solvent. Hereafter, the vial was capped, vortexed, and finally left at room temperature for 24 hours. Then, the dissolved material was visually examined regarding the solubility (FIG. 1). If the solution appeared cloudy or otherwise non-homogenous the solubility was set to “no”. If the solution appeared completely homogenous the solubility was set to “yes” (examination repeated after 24 hours).
Solubility of the following monomers was determined as per example 7.

[2] = Stability of amidite solutions by HPLC-MS (UV 254 nm, normalised to 0 hours); format: physicochemical
Method: Stability Determination Method: To complete the analysis the stability of the amidite was investigated using an Agilent 1100 series HPLC-MS with a gradient from 80% A (1% NH4OH in H2O) to 100% B (20% A in MeCN) and a Waters Xterra MS C18 2.1×100 mm column. The mass and UV peak of the mother compound was identified at 0 hours and at 24 hours. Hereafter, the relative stability compared to other by-products was reported by integrating the UV chromatogram (254 nm) and normalizing the area to the chromatogram recorded at 0 hours (FIG. 2).
To a 1.5 mL vial was added 0.013 mmol of amidite after which the solid material was dissolved in 0.13 mL of solvent (with and without Et3N, approximately 5-10 eq). Hereafter, the vial was capped, vortexed, and finally left at room temperature for 24 hours. To investigate the stability of the amidite an Agilent 1100 series HPLC-MS with a gradient from 80% A (1% NH4OH in H2O) to 100% B (20% A in MeCN) and a Waters Xterra MS C18 2.1×100 mm column was used. The mass and UV peak of the mother compound was identified at 0 hours and at 24 hours. Hereafter, the relative stability compared to other by-products was reported. This was again repeated after 48 hours.

**Q.** With `COc1ccc(C(OCC2OC(n3cnc4c(NC(=O)c5ccccc5)ncnc43)CC2OP2OC(c3ccccc3)C3CCCN32)(c2ccccc2)c2ccc(OC)cc2)cc1` [D-DNA A] as the compound, how does the “Solubility over 24 hours in MeCN with addition of pyridine” value [1] read?
**A.** The value was “the solubility of the monomer is preserved”.

**Q.** And the “Solubility after 24 hours in MeCN” value [1]?
**A.** The value was “not soluble”.

**Q.** Which results are given for `COc1ccc(C(OCC23COC(C(n4cnc5c(NC(=O)c6ccccc6)ncnc54)O2)C3OP2OC(c3ccccc3)C3CCCN32)(c2ccccc2)c2ccc(OC)cc2)cc1` [D-LNA A]?
**A.** Solubility over 24 hours in MeCN with addition of pyridine [1]: the solubility of the monomer is preserved; Solubility after 24 hours in MeCN [1]: not soluble

**Q.** Which “Solubility over 24 hours in MeCN with addition of pyridine” value [1] does the source give for `COc1ccc(C(OCC2OC(n3cnc4c(NC(=O)c5ccccc5)ncnc43)CC2OP2OC(c3ccccc3)C3CCCN32)(c2ccccc2)c2ccc(OC)cc2)cc1` [L-DNA A] here?
**A.** The value was “kept in solution; also recorded: the solubility of the monomer is preserved”.

**Q.** What about the “Solubility after 24 hours in MeCN” value [1] of the same compound?
**A.** Its value is “not sufficient to keep the monomer in solution; also recorded: not soluble”.

**Q.** Which Stability in solution ([2]; MeCN + Et3N (approximately 5-10 eq), after 24 hours) does the source give for `COc1ccc(C(OCC23COC(C(n4cnc5c(NC(=O)c6ccccc6)ncnc54)O2)C3OP2OC(c3ccccc3)C3CCCN32)(c2ccccc2)c2ccc(OC)cc2)cc1` [L-LNA A] here?
**A.** Its Stability in solution is “completely stable”.

**Q.** And the Stability in solution ([2]; MeCN + Et3N (approximately 5-10 eq), after 48 hours)?
**A.** Its Stability in solution is “the majority of the L-LNA A is preserved”.

**Q.** And the Stability in solution ([2]; MeCN only, after 24 hours, room temperature)?
**A.** The Stability in solution was “most of the L-LNA A was degraded”.

**Q.** And the Stability in solution ([2]; MeCN only, after 48 hours, room temperature)?
**A.** Its Stability in solution is “completely degraded”.

**Q.** Which results are given for `COc1ccc(C(OCC23COC(C(n4cnc5c(=O)[nH]c(N=CN(C)C)nc54)O2)C3OP2OC(c3ccccc3)C3CCCN32)(c2ccccc2)c2ccc(OC)cc2)cc1` [L-LNA G-DMF]?
**A.** Solubility in solvents ([1]; MeCN, MeCN:DCE, MeCN:Tol, MeCN:acetone, Dioxane, THF): unsoluble; Solubility in solvents ([1]; MeCN:DCM, DMF, DMSO, NMP, DCM, DCE, Toluene): soluble; Solubility in acetonitrile solvents ([1]; acetonitrile solvents): poorly soluble; Amidite left after 24 hours ([2]; DCM (best solvent), 24 hours, room temperature): 10%; Stability in the solvents where the monomer is soluble ([2]; MeCN:DCM, DMF, DMSO, NMP, DCM, DCE, Toluene, 24 hours): tremendous instability

**Q.** With `COc1ccc(C(OC[C@@]23CO[C@@H]([C@H](n4cnc5c(=O)[nH]c(NC(=O)C(C)C)nc54)O2)[C@@H]3O[P@]2O[C@H](c3ccccc3)[C@@H]3CCCN32)(c2ccccc2)c2ccc(OC)cc2)cc1` [L-LNA-G-iBu] as the compound, how does the “Solubility in all solvents investigated” value ([1]; 12 different solvents) read?
**A.** The value was “soluble in all solvents investigated”.

**Q.** And the “Soluble after: 24 h MeCN” value ([1]; 24 h, MeCN, 0.013 mmol amidite in 0.13 mL solvent, room temperature)?
**A.** Its value is “no”.

Reference: patent US11814407B2, “Multiple coupling and oxidation method” (Roche Innovation Center Copenhagen A/S, priority 2017, dated 2023)
